Experimental data from patent publication US20060063717A1, “Novel inhibitor of beta amyloid cleavage” (Pfizer Inc, priority 2001, published 2006).
*1 amine or outer side, *2 acyl side, *3 side chain or, on linkers, in order; H or OH if unused. Where a SMILES comes first, the peptide text is derived from it. [ ]: non-standard residue; d: D form. X1 = CC(C)(O)[C@H](C[C@H](O)[C@H](CC1CCCCC1)N[*:1])C(=O)[*:2]

Target: β-Secretase (Homo sapiens, UniProt P56817)
Conditions: in-vitro ELISA; βAP produced in presence of β-Secretase and APP versus control without inhibitor
Text: Such assays, which are well known in the art, measure the concentration of βAP produced (by detection of an antibody against the amino terminus of βAP) in the presence of β-Secretase and APP versus control experiments in the absence of inhibitor.

β-Secretase, sequence (P56817 46-501): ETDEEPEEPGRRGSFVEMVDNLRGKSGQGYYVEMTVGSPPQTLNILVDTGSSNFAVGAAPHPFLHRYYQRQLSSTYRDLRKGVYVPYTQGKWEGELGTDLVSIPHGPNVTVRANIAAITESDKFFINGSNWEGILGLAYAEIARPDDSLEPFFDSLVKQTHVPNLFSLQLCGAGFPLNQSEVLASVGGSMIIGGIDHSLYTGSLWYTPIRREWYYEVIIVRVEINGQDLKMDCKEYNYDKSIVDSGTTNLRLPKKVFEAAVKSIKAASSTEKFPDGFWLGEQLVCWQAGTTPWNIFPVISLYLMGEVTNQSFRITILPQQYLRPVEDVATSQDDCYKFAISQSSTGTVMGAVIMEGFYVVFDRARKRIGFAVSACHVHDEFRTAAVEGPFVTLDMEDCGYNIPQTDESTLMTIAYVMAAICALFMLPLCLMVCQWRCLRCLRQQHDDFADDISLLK

Compound: CC(C)[C@H](NC(=O)[C@@H](N)CCC(=O)O)C(=O)N[C@@H](CC(N)=O)C(=O)N[C@@H](CC1CCCCC1)[C@@H](O)C[C@H](C(=O)N[C@H](C)C(=O)N[C@H](CCC(=O)O)C(=O)N[C@H](Cc1ccccc1)C(=O)O)C(C)(C)O [compound of formula I] (H-EVN[X1][dA][dE][dF]-OH)
- IC50: 49 nM
